Assay results from patent US20260274814A1, “THIENYL COMPOUNDS FOR THE TREATMENT OF A CENTRAL NERVOUS SYSTEM DISEASE OR DISORDER” (Coreterra Therapeutics, Inc., priority 2023, published 2026).
Structures can show the parent of a compound that is named as a salt.

System: mice
Assay: Neuropharmacological Assay (SmartCube): automated behavioral signature of compound-treated mice compared with a database of reference drug classes
Assay type: in vivo
Details: for AG / CE / MS / PS / SH / AD / AN / AP / AX / HL / UK: SmartCube class probability, 3.0 mg/kg i.p., 15 min before test; for MED / minimal effective dose: minimal effective dose: dose having 45% or more total activity in SmartCube, i.p., if only one dose tested, that dose is shown; for minimal effective dose: Mus musculus, ip, read-out: MED
Summary of the method: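 Probabilities reflect how closely the digitally recorded behavioural signature at 3.0 mg/kg i.p. matched each reference class (antipsychotic, anxiolytic, antidepressant etc.). Dosing occurred 15 min before testing. Minimal effective dose was the dose giving 45% or more total activity.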

| SMILES | AG | CE | MS | PS | SH | AX (hydrochloride, 3 mg/kg) | UK (hydrochloride, 3 mg/kg) | MED [mpk] | minimal effective dose [mg/kg] | AD | AN | AP | AX | UK | HL | MED (hydrochloride) [mpk] | also measured |
| --- | --- | --- | --- | --- | --- | --- | --- | --- | --- | --- | --- | --- | --- | --- | --- | --- | --- |
| CNC1CCc2c(sc(Cl)c2C)C1 (single isomer, unassigned) [Compound 148, 2-chloro-N, 3-dimethyl-4,5,6,7-tetrahydrobenzothiophen-6-amine hydrochloride] | ND (^ <4%) | ND (^ <4%) | ND (^ <4%) | ND (^ <4%) | ND (^ <4%) | ++ (≥24%) | ND (^ <4%) | 3 |  |  |  |  |  |  |  |  | AD (hydrochloride, 3 mg/kg): +++ (≥49%); AN (hydrochloride, 3 mg/kg): ND (^ <4%); AP (hydrochloride, 3 mg/kg): + (≥4%); HL (hydrochloride, 3 mg/kg): ND (^ <4%) |
| CNC1(C)CCc2c(csc2C)C1 (single isomer, unassigned) [Compound 149, N, 1,5-trimethyl-6,7-dihydro-4H-2-benzothiophen-5-amine hydrochloride] | ND (^ <4%) | ND (^ <4%) | ND (^ <4%) |  | ND (^ <4%) |  |  |  | 3 | ND (^ <4%) | ND (^ <4%) | ND (^ <4%) | ND (^ <4%) | ND (^ <4%) |  |  | HL (hydrochloride, 3 mg/kg): + (≥4%); PS (hydrochloride, 3 mg/kg): ++++ (≥74%) |
| CNC1(C)CCc2c(csc2C)C1 (single isomer, unassigned) [Compound 150, N, 1,5-trimethyl-6,7-dihydro-4H-2-benzothiophen-5-amine hydrochloride] | ND (^ <4%) | ND (^ <4%) | ND (^ <4%) |  | ND (^ <4%) |  |  | 3 |  | ND (^ <4%) | ND (^ <4%) | ND (^ <4%) | ND (^ <4%) | ND (^ <4%) |  |  | HL (hydrochloride, 3 mg/kg): +++ (≥49%); PS (hydrochloride, 3 mg/kg): ++ (≥24%) |
| CNC1CCc2sc(Cl)cc2C1 (single isomer, unassigned) [Compound 151, 2-chloro-N-methyl-4,5,6,7-tetrahydrobenzothiophen-5-amine hydrochloride] | ND (^ <4%) | ND (^ <4%) | ND (^ <4%) | ND (^ <4%) | ND (^ <4%) |  | +++ (≥49%) |  | 3 | ND (^ <4%) | ND (^ <4%) | ND (^ <4%) | ND (^ <4%) |  | ND (^ <4%) |  |  |
| CNC1CCc2sc(Cl)cc2C1 (single isomer, unassigned) [Compound 152, 2-chloro-N-methyl-4,5,6,7-tetrahydrobenzothiophen-5-amine hydrochloride] | ND (^ <4%) | ND (^ <4%) | ND (^ <4%) | ND (^ <4%) | ND (^ <4%) |  | ++ (≥24%) | 3 |  | ND (^ <4%) | ND (^ <4%) | ND (^ <4%) | ND (^ <4%) |  | ND (^ <4%) |  |  |
| CNC1CCc2csc(C3CC3)c2C1 (single isomer, unassigned) [Compound 154, 3-cyclopropyl-N-methyl-4,5,6,7-tetrahydro-2-benzothiophen-5-amine hydrochloride] | ND (^ <4%) |  |  | ND (^ <4%) |  |  |  |  |  |  | ND (^ <4%) | ND (^ <4%) | ND (^ <4%) | ND (^ <4%) | ND (^ <4%) | >1 | AD (hydrochloride, 3 mg/kg): ND (^ <4%); CE (hydrochloride, 3 mg/kg): ND (^ <4%); MS (hydrochloride, 3 mg/kg): ND (^ <4%); SH (hydrochloride, 3 mg/kg): ND (^ <4%) |
| CNC1CCc2csc(C3CC3)c2C1 (single isomer, unassigned) [Compound 155, 3-cyclopropyl-N-methyl-4,5,6,7-tetrahydro-2-benzothiophen-5-amine hydrochloride] | ND (^ <4%) |  |  | ND (^ <4%) |  |  |  |  |  |  | ND (^ <4%) | ND (^ <4%) | ND (^ <4%) | ND (^ <4%) | ND (^ <4%) | 0.3 | AD (hydrochloride, 3 mg/kg): + (≥4%); CE (hydrochloride, 3 mg/kg): + (≥4%); MS (hydrochloride, 3 mg/kg): + (≥4%); SH (hydrochloride, 3 mg/kg): ++ (≥24%) |
| CN(C)C1CCc2cscc2C1.Cl (single isomer, unassigned) [Compound 156, N,N-dimethyl-4,5,6,7-tetrahydro-2-benzothiophen-5-amine hydrochloride] | ND (^ <4%) | ND (^ <4%) | ND (^ <4%) | ND (^ <4%) | ND (^ <4%) | ++ (≥24%) | ++ (≥24%) |  | 3 | ND (^ <4%) | ND (^ <4%) | ND (^ <4%) |  |  | ND (^ <4%) |  |  |
| CN(C)C1CCc2cscc2C1.Cl (single isomer, unassigned) [Compound 157, N,N-dimethyl-4,5,6,7-tetrahydro-2-benzothiophen-5-amine hydrochloride] | ND (^ <4%) | ND (^ <4%) | ND (^ <4%) | ND (^ <4%) | ND (^ <4%) | +++ (≥49%) | ND (^ <4%) | 3 |  | ND (^ <4%) | ND (^ <4%) | ND (^ <4%) |  |  | ND (^ <4%) |  |  |
| c1scc2c1CCC(NCC1CC1)C2 (single isomer, unassigned) [Compound 158, N-(cyclopropylmethyl)-4,5,6,7-tetrahydro-2-benzothiophen-5-amine hydrochloride] | ND (^ <4%) | ND (^ <4%) | ND (^ <4%) | ND (^ <4%) | ND (^ <4%) | ++++ (≥74%) | ND (^ <4%) |  |  | ND (^ <4%) | ND (^ <4%) | ND (^ <4%) |  |  | ND (^ <4%) | 1 |  |
| c1scc2c1CCC(NCC1CC1)C2 (single isomer, unassigned) [Compound 159, N-(cyclopropylmethyl)-4,5,6,7-tetrahydro-2-benzothiophen-5-amine hydrochloride] | ND (^ <4%) | ND (^ <4%) | ND (^ <4%) | ND (^ <4%) | ND (^ <4%) | ND (^ <4%) | + (≥4%) |  |  | ND (^ <4%) | ND (^ <4%) | ND (^ <4%) |  |  | ND (^ <4%) | >3 |  |
| c1scc2c1CCC(NC1CCC1)C2 (single isomer, unassigned) [Compound 160, N-cyclobutyl-4,5,6,7-tetrahydro-2-benzothiophen-5-amine hydrochloride] | ND (^ <4%) | ND (^ <4%) | ND (^ <4%) | ND (^ <4%) | ND (^ <4%) |  | + (≥4%) |  | > 3 | ND (^ <4%) | ND (^ <4%) | ND (^ <4%) | ND (^ <4%) |  | ND (^ <4%) |  |  |
